Results as given in ChEMBL document CHEMBL4602674, “19-nor-, 20-nor-, and tetranor-Halimane-Type Furanoditerpenoids from Croton crassifolius” (J Nat Prod, 2020).

Tests used:
RAW264.7 [1] = assay: Inhibition of LPS-induced NO production in mouse RAW264.7 cells preincubated for 30 mins followed by LPS stimulation and measured after 24 hrs by Griess assay; assay type: functional, cell-based
RAW264.7 [2] = assay: Cytotoxicity against mouse RAW264.7 cells at 50 uM after 48 hrs by MTT assay; assay type: cell-based; settings: raw264.7, 48 h

Compound | IC50 (RAW264.7 [1]) | Activity (RAW264.7 [2])
C[C@@H]1C[C@H]2OC(=O)C3=C2[C@@H](CCC3)[C@@]12C[C@@H](c1ccoc1)OC2=O | > 50 µM | Non-Toxic
COC(=O)[C@@]1(COC(C)=O)CCCC2=C1[C@@H](O)C[C@@H](C)[C@]21C[C@@H](c2ccoc2)OC1=O | > 50 µM | Non-Toxic
COC(=O)C1(C(=O)OC)CCCC2=C(CC(=O)c3ccoc3)[C@H](C)CC=C21 | > 50 µM | Non-Toxic
COC(=O)[C@@]1(C)CCCC2=C1[C@@H](OC(C)=O)C[C@@H](C)[C@]21C[C@@H](c2ccoc2)OC1=O | > 50 µM | Non-Toxic
C[C@@H]1C[C@@H]2OC(=O)[C@]3(O)CCCC(=C23)[C@@]12C[C@@H](c1ccoc1)OC2=O | > 50 µM | Non-Toxic
COC(=O)[C@]1(C)CCCC2=C1CC[C@@H](C)[C@]2(C)CCC1=CC(=O)OC1 | > 50 µM | Non-Toxic
COC(=O)[C@@]1(C)C2=C(CC[C@H]1OC(C)=O)[C@@]1(C[C@@H](c3ccoc3)OC1=O)[C@H](C)CC2=O | > 50 µM | Non-Toxic
C[C@@H]1C[C@H]2OC(=O)[C@@]3(CO)CCCC(=C23)[C@@]12C[C@@H](c1ccoc1)OC2=O | > 50 µM | Non-Toxic
O=c1c(O)c(-c2ccc(O)c(O)c2)oc2cc(O)cc(O)c12 [QUERCETIN] | 15.1 µM | –
CC1=CC(=O)C2=C3[C@@]1(O)CC[C@@H](C)[C@]3(C)C=C2c1ccoc1 | 17.2 µM | Non-Toxic
C[C@@H]1C[C@@H](O)C2=C(C[C@@H]3C[C@]2(C)C(=O)O3)[C@@]12C[C@@H](c1ccoc1)OC2=O | > 50 µM | Non-Toxic
COC(=O)[C@@]1(C)CCCC2=C1[C@@H](O)C[C@@H](C)[C@]21C[C@@H](c2ccoc2)OC1=O | > 50 µM | Non-Toxic
COC(=O)C1(C(=O)OC)C2=C(CC[C@@H]1OC(C)=O)[C@@]1(C[C@@H](c3ccoc3)OC1=O)[C@H](C)CC2=O | > 50 µM | Non-Toxic
CO[C@@H]1C[C@@H](C)[C@](C)(CC(=O)c2ccoc2)C2=C1[C@]1(C)C[C@H](C2)OC1=O | > 50 µM | Non-Toxic
COC(=O)[C@@]1(CO)CCCC2=C1C(=O)C[C@@H](C)[C@]21C[C@@H](c2ccoc2)OC1=O | > 50 µM | Non-Toxic
COC(=O)[C@@]1(CO)CCCC2=C1[C@@H](OC(C)=O)C[C@@H](C)[C@]21C[C@@H](c2ccoc2)OC1=O | > 50 µM | Non-Toxic

Compound | IC50 (RAW264.7 [1]) | Activity (RAW264.7 [2])
COC(=O)[C@@]1(C)C2=C(CC[C@H]1OC(C)=O)[C@@]1(C[C@@H](c3ccoc3)OC1=O)[C@H](C)CC2 [CRASSIFOLIN F] | > 50 µM | Non-Toxic
COC(=O)[C@@]1(COC(C)=O)CCCC2=C1CC[C@@H](C)[C@]21C[C@@H](c2ccoc2)OC1=O | > 50 µM | Non-Toxic
COC(=O)C1(C(=O)OC)CCCC2=C1[C@@H]1C[C@@H](C)[C@@]2(CC(=O)c2ccoc2)C(=O)O1 | > 50 µM | Non-Toxic
COC(=O)[C@@]1(CO)CCCC2=C1[C@@H](O)C[C@@H](C)[C@]21C[C@@H](c2ccoc2)OC1=O | > 50 µM | Non-Toxic
CO[C@@]12C[C@@H](C)[C@]3(C[C@@H](c4ccoc4)OC3=O)[C@@H]3CCCC(=C31)C(=O)O2 | > 50 µM | Non-Toxic
C[C@@H]1C[C@@H]2OC(=O)C3=C2[C@](O)(CCC3)[C@@]12C[C@@H](c1ccoc1)OC2=O | > 50 µM | Non-Toxic
COC(=O)[C@]1(C)C2=C(CC[C@H]1O)[C@@]1(C[C@@H](c3ccoc3)OC1=O)[C@H](C)C[C@@H]2OC(C)=O | > 50 µM | Non-Toxic
C[C@@H]1CCC2=C(C[C@@H]3C[C@]2(C)C(=O)O3)[C@@]12C=C(c1ccoc1)OC2=O | > 50 µM | Non-Toxic
C[C@@H]1C[C@@H]2OC(=O)C3=C2[C@H](CCC3)[C@@]12C[C@@H](c1ccoc1)OC2=O [TEUCVIN] | > 50 µM | Non-Toxic
C[C@@H]1CCC2=C(C[C@H]3C[C@]2(C)C(=O)O3)[C@@]1(C)CC(=O)c1ccoc1 | > 50 µM | Non-Toxic
COC(=O)[C@@]1(C)CC(=O)C2=C3[C@@](C)(CC2=O)[C@H](C)CC[C@]31O | > 50 µM | Non-Toxic
COC(=O)C1(C(=O)OC)CCCC2=C1[C@@H](OC(C)=O)C[C@@H](C)[C@]21C[C@@H](c2ccoc2)OC1=O | > 50 µM | Non-Toxic
COC(=O)[C@@]1(C)C2=C(CC[C@H]1O)[C@@]1(C[C@@H](c3ccoc3)OC1=O)[C@H](C)CC2 | > 50 µM | Non-Toxic
Cc1cc(O)cc2c1CC[C@@H](C)[C@]2(C)CC(=O)c1ccoc1 | 23.7 µM | Non-Toxic
COC(=O)[C@@]1(C)CC(=O)C=C2[C@@](C)(CC(=O)c3ccoc3)[C@H](C)CC[C@]21O | > 50 µM | Non-Toxic
COC(=O)[C@]1(C)CCCC2=C1C(=O)C[C@@H](C)[C@]2(C)CCC1=CC(=O)OC1 | > 50 µM | Non-Toxic
